Results reported in ChEMBL document CHEMBL1144386, “Synthesis of O-galactosyl aldoximes as potent LacNAc-mimetic galectin-3 inhibitors” (Bioorg Med Chem Lett, 2005).

Assay: Dissociation constant against galectin-3 using competitive fluorescence polarization
`O=[N+]([O-])c1ccccc1/C=N/O[C@@H]1OC(CO)C(O)[C@H](O)C1O` (stereo partly specified) gave a Kd of 9300 µM. `NO[C@@H]1OC(CO)C(O)[C@H](O)C1O` (stereo partly specified) showed a Kd of 5500 µM. `OCC1O[C@@H](O/N=C/c2ccc(Br)cc2)C(O)[C@@H](O)C1O` (stereo partly specified) showed a Kd of 690 µM. Work on `O=[N+]([O-])c1ccc(/C=N/O[C@@H]2OC(CO)C(O)[C@H](O)C2O)cc1` (stereo partly specified) yielded a Kd of 2200 µM. For `OCC1O[C@@H](O/N=C/c2ccccc2OC(F)(F)F)C(O)[C@@H](O)C1O` (stereo partly specified), the Kd was 3800 µM. `OCC1O[C@@H](O/N=C/c2cc(Br)ccc2O)C(O)[C@@H](O)C1O` (stereo partly specified) showed a Kd of 1650 µM. For `OCC1O[C@@H](O/N=C/CCc2ccccc2)C(O)[C@@H](O)C1O` (stereo partly specified), the Kd was > 10000 µM. `OCC1O[C@@H](O/N=C/c2ccccc2)C(O)[C@@H](O)C1O` (stereo partly specified) showed a Kd of 3500 µM. Compound `OCC1O[C@@H](O/N=C/c2ccc(O)cc2O)C(O)[C@@H](O)C1O` (stereo partly specified) has a Kd of 840 µM. Compound `O=[N+]([O-])c1ccc(/C=N/O[C@@H]2OC(CO)C(O)[C@H](O)C2O)c([N+](=O)[O-])c1` (stereo partly specified) has a Kd of 1800 µM. For `OCC1O[C@@H](O/N=C/c2ccc(OCc3ccccc3)cc2)C(O)[C@@H](O)C1O` (stereo partly specified), the Kd was > 10000 µM. With `OCC1O[C@@H](O/N=C/c2c3ccccc3cc3ccccc23)C(O)[C@@H](O)C1O` (stereo partly specified) the Kd was 2500 µM. In the case of `CCC(/C=N/O[C@@H]1OC(CO)C(O)[C@H](O)C1O)CC` (stereo partly specified), the Kd is reported as 7300 µM. Work on `OC[C@H]1O[C@@H](O)[C@H](O)[C@@H](O)[C@H]1O` [b-D-GALACTOSE] yielded a Kd of 4400 µM. Compound `OCC1O[C@@H](O/N=C/c2ccc(O)cc2)C(O)[C@@H](O)C1O` (stereo partly specified) has a Kd of 4800 µM. For `OCC1O[C@@H](O/N=C/c2ccccc2O)C(O)[C@@H](O)C1O` (stereo partly specified), the Kd was 1800 µM. For `OCC1O[C@@H](O/N=C/c2ccccc2-c2ccccc2)C(O)[C@@H](O)C1O` (stereo partly specified), the Kd was 2900 µM. Compound `OCC1O[C@@H](O/N=C/c2cccnc2)C(O)[C@@H](O)C1O` (stereo partly specified) has a Kd of 3300 µM. LACTOSE, ANHYDROUS gave a Kd of 220 µM. With `OCC1O[C@@H](O/N=C/c2cccc(F)c2)C(O)[C@@H](O)C1O` (stereo partly specified) the Kd was 1600 µM. In the case of `CC(C)(C)c1ccc(/C=N/O[C@@H]2OC(CO)C(O)[C@H](O)C2O)cc1` (stereo partly specified), the Kd is reported as 4800 µM. In the case of `OC[C@H]1O[C@@H](O/N=C/c2c[nH]c3ccccc23)[C@H](O)[C@@H](O)[C@H]1O`, the Kd is reported as 220 µM. In the case of `OCC1O[C@@H](O/N=C/c2ccc3ccccc3n2)C(O)[C@@H](O)C1O` (stereo partly specified), the Kd is reported as 1400 µM. With `CN(C)c1ccc(/C=N/O[C@@H]2OC(CO)C(O)[C@H](O)C2O)cc1` (stereo partly specified) the Kd was 9000 µM. In the case of `OCC1O[C@@H](O/N=C/c2ccccc2F)C(O)[C@@H](O)C1O` (stereo partly specified), the Kd is reported as > 10000 µM. For `OCC1O[C@@H](O/N=C/c2cccc(O)c2)C(O)[C@@H](O)C1O` (stereo partly specified), the Kd was 1800 µM. `O=[N+]([O-])c1ccc(O)c(/C=N/O[C@@H]2OC(CO)C(O)[C@H](O)C2O)c1` (stereo partly specified) gave a Kd of 360 µM. In the case of `OCC1O[C@@H](O/N=C/c2cccc(OC(F)(F)F)c2)C(O)[C@@H](O)C1O` (stereo partly specified), the Kd is reported as 2200 µM. With `OCC1O[C@@H](O/N=C/c2ccc(F)cc2)C(O)[C@@H](O)C1O` (stereo partly specified) the Kd was 3100 µM. For `OCC1O[C@@H](O/N=C/c2c[nH]c3ccccc23)C(O)[C@@H](O)C1O` (stereo partly specified), the Kd was 330 µM. For `OCC1O[C@@H](O/N=C/c2ccc3ccccc3c2)C(O)[C@@H](O)C1O` (stereo partly specified), the Kd was 2300 µM. Work on `C/C=N/O[C@@H]1OC(CO)C(O)[C@H](O)C1O` (stereo partly specified) yielded a Kd of 5700 µM. For `OCC1O[C@@H](O/N=C\C2C[C@H]3C=CC2C3)C(O)[C@@H](O)C1O` (stereo partly specified), the Kd was 4800 µM. `O=[N+]([O-])c1cccc(/C=N/O[C@@H]2OC(CO)C(O)[C@H](O)C2O)c1` (stereo partly specified) showed a Kd of 530 µM. `OCC1O[C@@H](O/N=C/CCl)C(O)[C@@H](O)C1O` (stereo partly specified) gave a Kd of 5300 µM. For `O=C[C@H](O)[C@@H](O)[C@@H](O)[C@H](O)CO` [GALACTOSE], the Kd was 4000 µM. For `OCC1O[C@@H](O/N=C/C2CCCCC2)C(O)[C@@H](O)C1O` (stereo partly specified), the Kd was 4800 µM. In the case of `Cc1ccc(O)c(/C=N/O[C@@H]2OC(CO)C(O)[C@H](O)C2O)c1` (stereo partly specified), the Kd is reported as 2600 µM. In the case of `OCC1O[C@@H](O/N=C/c2ccncc2)C(O)[C@@H](O)C1O` (stereo partly specified), the Kd is reported as > 10000 µM. Work on `OCC1O[C@@H](O/N=C/c2cccc(-c3ccccc3)c2)C(O)[C@@H](O)C1O` (stereo partly specified) yielded a Kd of 2900 µM. `O=[N+]([O-])c1ccc(/C=N/O[C@@H]2OC(CO)C(O)[C@H](O)C2O)o1` (stereo partly specified) showed a Kd of 1600 µM. For `CC(=O)Nc1ccc(/C=N/O[C@@H]2OC(CO)C(O)[C@H](O)C2O)cc1` (stereo partly specified), the Kd was 4100 µM. `OCC1O[C@@H](O/N=C/C(c2ccccc2)c2ccccc2)C(O)[C@@H](O)C1O` (stereo partly specified) gave a Kd of 7200 µM. For `COc1cccc(/C=N/O[C@@H]2OC(CO)C(O)[C@H](O)C2O)c1O` (stereo partly specified), the Kd was 1700 µM. `OCC1O[C@@H](O/N=C/c2ccc(O)c(O)c2)C(O)[C@@H](O)C1O` (stereo partly specified) showed a Kd of 550 µM. `CCn1c2ccccc2c2cc(/C=N/O[C@@H]3OC(CO)C(O)[C@H](O)C3O)ccc21` (stereo partly specified) gave a Kd of 2200 µM. `OCC1O[C@@H](O/N=C/c2ccnc3ccccc23)C(O)[C@@H](O)C1O` (stereo partly specified) gave a Kd of 620 µM. With `OCC1O[C@@H](O/N=C/Cc2ccccc2)C(O)[C@@H](O)C1O` (stereo partly specified) the Kd was > 10000 µM. Work on `C=NO[C@@H]1OC(CO)C(O)[C@H](O)C1O` (stereo partly specified) yielded a Kd of 8900 µM. Compound `OCC1O[C@@H](O/N=C/c2ccco2)C(O)[C@@H](O)C1O` (stereo partly specified) has a Kd of 6400 µM. Work on `OCC1O[C@@H](O/N=C/c2cccc3ccccc23)C(O)[C@@H](O)C1O` (stereo partly specified) yielded a Kd of 370 µM. With `OCC1O[C@@H](O/N=C/c2cc(O)ccc2O)C(O)[C@@H](O)C1O` (stereo partly specified) the Kd was 780 µM. For `OCC1O[C@@H](O/N=C/c2ccc(-c3ccccc3)cc2)C(O)[C@@H](O)C1O` (stereo partly specified), the Kd was 6000 µM. In the case of `OCC1O[C@@H](O/N=C/c2ccoc2)C(O)[C@@H](O)C1O` (stereo partly specified), the Kd is reported as > 10000 µM. With `Cc1ccccc1/C=N/O[C@@H]1O[C@@H](CO)[C@H](O)[C@H](O)[C@@H]1O` the Kd was 5700 µM. `COc1ccc(/C=N/O[C@@H]2OC(CO)C(O)[C@H](O)C2O)c(O)c1` (stereo partly specified) showed a Kd of 1700 µM.
